Like-named read-outs stand apart in the source and are kept apart here. A value given as a limit tells only on which side of the number the result lay.

The test concerns the target hcGAS (Homo sapiens, UniProt Q8N884). The test can be described thus: hcGAS LCMS assay (direct measurement of cGAMP production by LC/MS). The test is classed as biochemical. On the procedure:
cGAS catalyzes the cyclization of ATP and GTP to produce cGAMP, which is the activating ligand of STING. Human cGAS (hcGAS) inhibition can thus be quantified by measuring how much cGAMP is formed either indirectly, by monitoring ATP-depletion as in the hcGAS Kinase-Glo assay (as described below), or directly, such as using the hcGAS LCMS assay (as described below).
2. hGAS LCMS Assay Conditions
Compounds were tested for their hcGAS inhibition activity using direct measurement of cGAMP production by LC/MS. Briefly, compounds were incubated with enzyme and substrates for 4 hours (see Table C), before the reaction was stopped with 3 volumes of 70/30 Acetonitrile/H2O mix containing 0.15 uM cGAMP-^13C10^15N5 as internal standard and mixed for 5 mmn. After centrifugation (3700 rpm, […], […]), 100 uL of each reaction was collected and mixed to equal volume of acetonitrile (MeCN). Samples were then analyzed on Qexactive (Column: XBridge BEH Amide Column, 130 Å, 3.5 μm, 3 mm×50 mm. Mobile phase A: 10 mM Ammonium acetate in 95/5 H2O/MeCN (0.5% DMSO), Mobile phase B: MeCN (0.5% DMSO).
The results of the assay, expressed as IC50 values, are reported in Table D with the following designations: A represents an IC50 value <0.005 μM (with A1 representing an IC50 value <0.0005 μM, A2 representing an IC50 value ≥0.0005 μM and <0.001 μM, and A3 representing an IC50 value ≥0.001 μM and <0.005 μM); B represents an IC50 value ≥0.005 μM and <0.02 μM; C represents an IC50 value ≥0.02 μM and <0.06 μM; and D represents an IC50 value ≥0.06 μM.

Where [1] appears, read: 4 h incubation with enzyme and substrates, cGAMP production by LC/MS, class symbols, read-out: hcGAS LCMS IC50.
Where [2] appears, read: hcGAS 0.5 nM, ATP 100 μM, GTP 100 μM, dsDNA 25 nM, pH 7.4, 4 h incubation, read-out: hcGAS inhibition IC50 (activity class, Table D).

Chain of hcGAS (Q8N884 whole entry): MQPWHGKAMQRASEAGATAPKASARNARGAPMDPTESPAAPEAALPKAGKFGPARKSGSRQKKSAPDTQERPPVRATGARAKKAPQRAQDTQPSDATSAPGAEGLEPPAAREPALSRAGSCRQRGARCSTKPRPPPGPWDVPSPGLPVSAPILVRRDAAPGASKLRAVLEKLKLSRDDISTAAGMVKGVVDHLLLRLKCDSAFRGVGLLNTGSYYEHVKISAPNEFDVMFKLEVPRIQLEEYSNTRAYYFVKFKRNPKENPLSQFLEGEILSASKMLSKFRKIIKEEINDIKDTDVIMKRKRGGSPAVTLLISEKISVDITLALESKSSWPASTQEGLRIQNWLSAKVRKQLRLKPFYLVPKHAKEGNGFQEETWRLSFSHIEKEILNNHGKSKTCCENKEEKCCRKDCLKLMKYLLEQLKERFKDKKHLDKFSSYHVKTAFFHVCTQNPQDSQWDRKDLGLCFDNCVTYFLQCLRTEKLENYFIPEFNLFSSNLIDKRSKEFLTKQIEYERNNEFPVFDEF

As for `COc1cccc(OC)c1-c1cc(C(=O)Nc2nnc(-n3nccc3N)s2)oc(=O)c1OCCC(C)(C)O` [Compound 59, N-(5-(5-amino-1H-pyrazol-1-yl)-1,3,4-thiadiazol-2-yl)-4-(2,6-dimethoxyphenyl)-3-(3-hydroxy-3-methylbutoxy)-2-oxo-2H-pyran-6-carboxamide], under setting [1], the IC50 is below 0.5 nM. Still for that read-out and setting: the result for `COc1c(-c2ccccc2S(C)(=O)=O)cc(C(=O)Nc2nnc(-n3nccc3C)s2)oc1=O` [Compound 2, 3-methoxy-N-(5-(5-methyl-1H-pyrazol-1-yl)-1,3,4-thiadiazol-2-yl)-4-(2-(methylsulfonyl)phenyl)-2-oxo-2H-pyran-6-carboxamide] reads 5 to 20 nM; that for `COc1cccnc1-c1cc(C(=O)Nc2nnc(-n3nccc3N)s2)oc(=O)c1O[C@@H](C)CO` [Compound 107A, (S)—N-(5-(5-amino-1H-pyrazol-1-yl)-1,3,4-thiadiazol-2-yl)-3-((1-hydroxypropan-2-yl)oxy)-4-(3-methoxypyridin-2-yl)-2-oxo-2H-pyran-6-carboxamide], 1 to 5 nM. Still for that read-out and setting: the result for `COc1c(-c2c(C#N)cnn2C)cc(C(=O)Nc2nnc(-n3nccc3C)s2)oc1=O` [Compound 14, 4-(4-cyano-1-methyl-1H-pyrazol-5-yl)-3-methoxy-N-(5-(5-methyl-1H-pyrazol-1-yl)-1,3,4-thiadiazol-2-yl)-2-oxo-2H-pyran-6-carboxamide] reads 20 to 60 nM. On the same count and under the same terms, to `COc1cccc(OC)c1-c1cc(C(=O)Nc2nnc(-n3nccc3N)s2)oc(=O)c1O[C@@H]1CCCC[C@H]1O` (single isomer, unassigned) [110A*] belongs 1 to 5 nM.

Regarding `COc1cccc(OC)c1-c1cc(C(=O)Nc2nnc(-n3nccc3N)s2)oc(=O)c1O[C@H](C)CO` (single isomer, unassigned) [Compound 55B*], the IC50 under setting [1] was in the range of 0.5 to 1 nM. As to `COCCOc1c(-c2c(OC)cccc2OCCC#N)cc(C(=O)Nc2nnc(-n3nccc3N)s2)oc1=O` [Compound 67, N-(5-(5-amino-1H-pyrazol-1-yl)-1,3,4-thiadiazol-2-yl)-4-(2-(2-cyanoethoxy)-6-methoxyphenyl)-3-(2-methoxyethoxy)-2-oxo-2H-pyran-6-carboxamide], under setting [1], the IC50 fell in the range of 1 to 5 nM. As to `COc1cccc(OC)c1-c1cc(C(=O)Nc2nnc(-n3nccc3N)s2)oc(=O)c1OC[C@H]1COCCO1` (single isomer, unassigned) [Compound 43B], the IC50 under setting [1] lay within 0.5 to 1 nM. Turning to `COCCOc1c(-c2ncccc2C#N)cc(C(=O)Nc2nnc(-n3nccc3N)s2)oc1=O` [Compound 9, N-(5-(5-amino-1H-pyrazol-1-yl)-1,3,4-thiadiazol-2-yl)-4-(3-cyanopyridin-2-yl)-3-(2-methoxyethoxy)-2-oxo-2H-pyran-6-carboxamide], under setting [1], the IC50 is 0.5 to 1 nM. Consider `COCCOc1c(-c2c(Cl)cccc2C#N)cc(C(=O)Nc2nnc(-n3nccc3N)s2)oc1=O` [Compound 45, N-(5-(5-amino-1H-pyrazol-1-yl)-1,3,4-thiadiazol-2-yl)-4-(2-chloro-6-cyanophenyl)-3-(2-methoxyethoxy)-2-oxo-2H-pyran-6-carboxamide], for which the IC50 is below 0.5 nM under setting [1] and below 0.5 nM under setting [2].

In the case of `COc1cccc(OC)c1-c1cc(C(=O)Nc2nnc(-n3nccc3N)s2)oc(=O)c1OC[C@H](CO)N1CCSCC1` [79B*, (S)-N-(5-(5-amino-1H-pyrazol-1-yl)-1,3,4-thiadiazol-2-yl)-4-(2,6-dimethoxyphenyl)-3-(3-hydroxy-2-thiomorpholinopropoxy)-2-oxo-2H-pyran-6-carboxamide], the IC50 under setting [1] was 1 to 5 nM.

Turning to `COCCCOc1c(-c2ncccc2OC)cc(C(=O)Nc2nnc(-n3nccc3N)s2)oc1=O` [Compound 21, N-(5-(5-amino-1H-pyrazol-1-yl)-1,3,4-thiadiazol-2-yl)-3-(3-methoxypropoxy)-4-(3-methoxypyridin-2-yl)-2-oxo-2H-pyran-6-carboxamide], under setting [1], the IC50 was 1 to 5 nM. Still for that read-out and setting: the result for `COCC(CN1CCOCC1)Oc1c(-c2c(OC)cccc2OC)cc(C(=O)Nc2nnc(-n3nccc3N)s2)oc1=O` (stereo not shown) [84A*/84B*] reads 5 to 20 nM; that for `COc1cccc(OC)c1-c1cc(C(=O)Nc2nnc(-n3nccc3N)s2)oc(=O)c1OC[C@@H](CO)N1CCSCC1` [79A*, (R)-N-(5-(5-amino-1H-pyrazol-1-yl)-1,3,4-thiadiazol-2-yl)-4-(2,6-dimethoxyphenyl)-3-(3-hydroxy-2-thiomorpholinopropoxy)-2-oxo-2H-pyran-6-carboxamide], 1 to 5 nM; that for `COCCOc1c(-c2c(CC#N)cccc2OC)cc(C(=O)Nc2nnc(-n3nccc3N)s2)oc1=O` [Compound 32, N-(5-(5-amino-1H-pyrazol-1-yl)-1,3,4-thiadiazol-2-yl)-4-(2-(cyanomethyl)-6-methoxyphenyl)-3-(2-methoxyethoxy)-2-oxo-2H-pyran-6-carboxamide], 1 to 5 nM. For `COCCOc1c(-c2c(C#N)ccnc2OC)cc(C(=O)Nc2nnc(-n3nccc3N)s2)oc1=O` [Compound 66, N-(5-(5-amino-1H-pyrazol-1-yl)-1,3,4-thiadiazol-2-yl)-4-(4-cyano-2-methoxypyridin-3-yl)-3-(2-methoxyethoxy)-2-oxo-2H-pyran-6-carboxamide], the IC50 under setting [1] lay in the range of 0.5 to 1 nM.

Take `COc1c(-c2ccccc2C#N)cc(C(=O)Nc2nnc(-n3nccc3C)s2)oc1=O` [Compound 1, 4-(2-cyanophenyl)-3-methoxy-N-(5-(5-methyl-1H-pyrazol-1-yl)-1,3,4-thiadiazol-2-yl)-2-oxo-2H-pyran-6-carboxamide]: the IC50 reads like this: under setting [1], 0.5 to 1 nM; under setting [2], 0.5 to 1 nM. With `COCCOc1c(-c2c(Cl)cccc2OC)cc(C(=O)Nc2nnc(-n3nccc3N)s2)oc1=O` (single isomer, unassigned) [Compound 15B*, (Sa)-N-(5-(5-amino-1H-pyrazol-1-yl)-1,3,4-thiadiazol-2-yl)-4-(2-chloro-6-methoxyphenyl)-3-(2-methoxyethoxy)-2-oxo-2H-pyran-6-carboxamide], under setting [1], the IC50 was below 0.5 nM. The same measure, in the same setting: the result for `COc1cccc(OC)c1-c1cc(C(=O)Nc2nnc(-n3nccc3N)s2)oc(=O)c1OCCN1C2CSCC1C2` [Compound 94, 3-(2-(3-thia-6-azabicyclo[3.1.1]heptan-6-yl)ethoxy)-N-(5-(5-amino-1H-pyrazol-1-yl)-1,3,4-thiadiazol-2-yl)-4-(2,6-dimethoxyphenyl)-2-oxo-2H-pyran-6-carboxamide] reads 0.5 to 1 nM.

With `COc1cccc(OC)c1-c1cc(C(=O)Nc2nnc(-n3nccc3N)s2)oc(=O)c1OC[C@@H]1CCCO1` [56A*, (S)-N-(5-(5-amino-1H-pyrazol-1-yl)-1,3,4-thiadiazol-2-yl)-4-(2,6-dimethoxyphenyl)-2-oxo-3-((tetrahydrofuran-2-yl)methoxy)-2H-pyran-6-carboxamide], under setting [1], the IC50 is 0.5 to 1 nM. Regarding `COc1cccnc1-c1cc(C(=O)Nc2nnc(-n3nccc3N)s2)oc(=O)c1O[C@H]1CC[C@@H](O)C1` (single isomer, unassigned) [111B*], the IC50 under setting [1] is 0.5 to 1 nM. Take `COc1cccnc1-c1cc(C(=O)Nc2nnc(-n3nccc3N)s2)oc(=O)c1O[C@@H]1CCC[C@@H](OC)C1` (single isomer, unassigned) [113A*]: the IC50 under setting [1] is 1 to 5 nM. In the case of `COc1cccc(OC)c1-c1cc(C(=O)Nc2nnc(-n3nccc3N)s2)oc(=O)c1OC[C@H](CO)OC` [38A*, (S)-N-(5-(5-amino-1H-pyrazol-1-yl)-1,3,4-thiadiazol-2-yl)-4-(2,6-dimethoxyphenyl)-3-(3-hydroxy-2-methoxypropoxy)-2-oxo-2H-pyran-6-carboxamide], the IC50 under setting [1] lay in the range of 0.5 to 1 nM. Same read-out and setting: to `COc1cccc(OC)c1-c1cc(C(=O)Nc2nnc(-n3nccc3N)s2)oc(=O)c1OCCN1CCO[C@@H](CSC)C1` [82B*, (R)-N-(5-(5-amino-1H-pyrazol-1-yl)-1,3,4-thiadiazol-2-yl)-4-(2,6-dimethoxyphenyl)-3-(2-(2-((methylthio)methyl)morpholino)ethoxy)-2-oxo-2H-pyran-6-carboxamide] belongs 0.5 to 1 nM.

For `COc1cccc(OC)c1-c1cc(C(=O)Nc2nnc(-n3nccc3N)s2)oc(=O)c1OC[C@@H](C)OC` [Compound 54, (R)-N-(5-(5-amino-1H-pyrazol-1-yl)-1,3,4-thiadiazol-2-yl)-4-(2,6-dimethoxyphenyl)-3-(2-methoxypropoxy)-2-oxo-2H-pyran-6-carboxamide], the IC50 under setting [1] is 0.5 to 1 nM. On the same count and under the same terms, the result for `COC[C@H](CO)Oc1c(-c2c(OC)cccc2OC)cc(C(=O)Nc2nnc(-n3nccc3N)s2)oc1=O` [Compound 62A*, (S)—N-(5-(5-amino-1H-pyrazol-1-yl)-1,3,4-thiadiazol-2-yl)-4-(2,6-dimethoxyphenyl)-3-((1-hydroxy-3-methoxypropan-2-yl)oxy)-2-oxo-2H-pyran-6-carboxamide] reads 0.5 to 1 nM.

The values above are taken from patent US20260327221A1, “INHIBITORS OF CYCLIC GMP-AMP SYNTHASE AND USES THEREOF” (Ventus Therapeutics U.S., Inc., priority 2023, published 2026).
